ChEMBL document CHEMBL5055678, “Structure-based drug design of novel and highly potent pyruvate dehydrogenase kinase inhibitors” (Bioorg Med Chem, 2021)

Legend:
[1] = target: T1, [Pyruvate dehydrogenase (acetyl-transferring)] kinase isozyme 4, mitochondrial (Homo sapiens, UniProt Q16654); experiment: (§1) Inhibition of human recombinant PDHK4 co-complexed with porcine PDH using sodium pyruvate, coenzymeA and NAD as substrates preincubated with enzyme complex for 45 mins followed by substrates addition and further incubated for 90 mins in presence of ATP at Km concentration by spectrophotometric assay
Target sequence in this assay (Q16654 whole entry): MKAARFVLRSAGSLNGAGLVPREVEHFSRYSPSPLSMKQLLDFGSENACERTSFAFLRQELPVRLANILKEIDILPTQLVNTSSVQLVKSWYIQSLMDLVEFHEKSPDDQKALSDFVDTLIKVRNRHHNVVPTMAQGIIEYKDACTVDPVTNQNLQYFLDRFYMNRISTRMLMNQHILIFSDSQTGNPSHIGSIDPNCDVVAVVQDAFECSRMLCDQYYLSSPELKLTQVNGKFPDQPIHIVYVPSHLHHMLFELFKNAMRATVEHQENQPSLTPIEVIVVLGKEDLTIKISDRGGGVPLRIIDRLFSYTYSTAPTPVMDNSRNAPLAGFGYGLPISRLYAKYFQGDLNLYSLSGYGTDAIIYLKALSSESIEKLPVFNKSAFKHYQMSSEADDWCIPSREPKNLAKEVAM

[2] = target: [Pyruvate dehydrogenase (acetyl-transferring)] kinase isozyme 2, mitochondrial (Homo sapiens, UniProt Q15119); experiment: Inhibition of human recombinant PDHK2 co-complexed with porcine PDH using sodium pyruvate, coenzymeA and NAD as substrates preincubated with enzyme complex for 45 mins followed by substrates addition and further incubated for 90 mins in presence of ATP at Km concentration by spectrophotometric assay
[3] = target: T1, [Pyruvate dehydrogenase (acetyl-transferring)] kinase isozyme 4, mitochondrial; experiment: as §1, with “porcine PDH at 30 uM using sodium” for “porcine PDH using sodium”, “spectrophotometric assay relative to control” for “spectrophotometric assay”; details: time 135.0 min
Target sequence in this assay (Q16654 whole entry, looked up): as the sequence (Q16654 whole entry) above

[4] = target: [Pyruvate dehydrogenase (acetyl-transferring)] kinase isozyme 1, mitochondrial (Homo sapiens, UniProt Q15118); experiment: Inhibition of human recombinant PDHK1 co-complexed with porcine PDH using sodium pyruvate, coenzymeA and NAD as substrates preincubated with enzyme complex for 45 mins followed by substrates addition and further incubated for 90 mins by spectrophotometric assay
[5] = target: T2, Branched-chain alpha-ketoacid dehydrogenase kinase (Homo sapiens, UniProt O14874); experiment: Inhibition of human recombinant BCKDK incubated for 60 mins in presence of ATP by ADP-Glo reagent based luminescent assay
[6] = target: T2, Branched-chain alpha-ketoacid dehydrogenase kinase; experiment: Inhibition of human recombinant BCKDK at >100 uM incubated for 60 mins in presence of ATP by ADP-Glo reagent based luminescent assay relative to control

Chain of [Pyruvate dehydrogenase (acetyl-transferring)] kinase isozyme 1, mitochondrial (Q15118 whole entry): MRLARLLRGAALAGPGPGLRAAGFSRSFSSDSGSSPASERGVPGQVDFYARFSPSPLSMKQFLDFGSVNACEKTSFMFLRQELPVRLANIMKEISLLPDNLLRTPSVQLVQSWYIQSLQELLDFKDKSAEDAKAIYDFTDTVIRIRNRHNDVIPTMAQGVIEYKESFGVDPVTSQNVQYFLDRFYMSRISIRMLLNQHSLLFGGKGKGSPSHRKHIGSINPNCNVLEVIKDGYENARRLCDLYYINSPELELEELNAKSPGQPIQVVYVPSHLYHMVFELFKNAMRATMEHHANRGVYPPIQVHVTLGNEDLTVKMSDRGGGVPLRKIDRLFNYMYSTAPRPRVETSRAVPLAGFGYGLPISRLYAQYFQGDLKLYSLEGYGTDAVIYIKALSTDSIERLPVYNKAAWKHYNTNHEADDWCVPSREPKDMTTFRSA

Cc1nc(N2C[C@H](Cc3ccccc3)C[C@H]2CO)c2c(n1)[nH]c1c(C3CC3)cccc12
IC50 [1]: 1120 nM | IC50 [2]: 73 nM

Cc1ccc2c(n1)[nH]c1c(C3CC3)cccc12
IC50 [1]: 11900 nM | IC50 [2]: 2030 nM

Cc1nc2[nH]c3c(C4CC4)cccc3c2cc1-c1ccccn1
IC50 [1]: 2980 nM | IC50 [2]: 1510 nM

Cc1nc(N2C[C@@H](c3ccc(C(=O)O)[nH]3)C[C@H]2CO)c2c(n1)[nH]c1c(C3CC3)cccc12
IC50 [1]: 12.2 nM | IC50 [2]: 5.1 nM

CCCc1nnc(-c2cc3c(nc2C)[nH]c2c(C4CC4)cccc23)o1
IC50 [1]: 292 nM | IC50 [2]: 91 nM

Cc1nc(N2CCCC2)c2c(n1)[nH]c1c(C3CC3)cccc12
IC50 [1]: 10300 nM | IC50 [2]: 2410 nM

CNC(=O)c1cc2c(nc1C)[nH]c1c(C3CC3)cccc12
inhibition [3]: 35% | IC50 [1]: > 30000 nM | IC50 [2]: 5510 nM

Cc1nc(N2C[C@H](c3ccccc3)C[C@H]2CO)c2c(n1)[nH]c1c(C3CC3)cccc12
IC50 [1]: 7700 nM | IC50 [2]: 1010 nM

Cc1nc(N2CCC[C@H]2CO)c2c(n1)[nH]c1c(C3CC3)cccc12
IC50 [1]: 4530 nM | IC50 [2]: 352 nM

Cc1nc2[nH]c3c(C4CC4)cccc3c2cc1-c1nnc([C@@H](CC(=O)N[C@H](C)c2ccccc2)C(C)C)o1
IC50 [1]: 61.5 nM | IC50 [2]: 17.1 nM

Cc1nc(N2C[C@@H](c3ccc(C(N)=O)[nH]3)C[C@H]2CO)c2c(n1)[nH]c1c(C3CC3)cccc12
IC50 [1]: 17.8 nM | IC50 [2]: 5.5 nM

Cc1ncc2c(n1)[nH]c1c(C3CC3)cccc12
IC50 [4]: 5870 nM | IC50 [5]: > 300000 nM | IC50 [2]: 710 nM

Cc1nc(N2C[C@](CO)(Cc3ccccc3)C[C@H]2CO)c2c(n1)[nH]c1c(C3CC3)cccc12
IC50 [1]: 292 nM | IC50 [2]: 14.6 nM

Cc1cnc(Cl)nc1-c1ccc(N(Cc2ccccc2)C(=O)c2ccc(O)cc2O)cc1
IC50 [1]: 350 nM | IC50 [2]: 35 nM

CC[C@@H]1C[C@H](c2ccc(C(=O)O)[nH]2)CN1c1nc(C)nc2[nH]c3c(C4CC4)cccc3c12
IC50 [1]: 40.6 nM | IC50 [2]: 9.2 nM

Cc1nc2[nH]c3c(C4CC4)cccc3c2cc1-c1nnc(C(C)C(C)C)o1 (stereo not drawn)
IC50 [1]: 494 nM | IC50 [2]: 87 nM

Cc1nc2[nH]c3c(C4CC4)cccc3c2cc1-c1nnc(CC(C)C)o1
IC50 [1]: 462 nM | IC50 [2]: 56 nM

Cc1nnc(-c2cc3c(nc2C)[nH]c2c(C4CC4)cccc23)o1
IC50 [1]: 1510 nM | IC50 [2]: 490 nM

Cc1nc(N2C[C@@](Cc3ccccc3)(C(N)=O)C[C@H]2CO)c2c(n1)[nH]c1c(C3CC3)cccc12
IC50 [1]: 260 nM | IC50 [2]: 4.5 nM

Cc1nc2[nH]c3c(C4CC4)cccc3c2cc1-c1nnc(C(CC(=O)NCc2ccccc2)C(C)C)o1 (stereo not drawn)
inhibition [6]: 18% | IC50 [5]: > 100000 nM | IC50 [1]: 32.9 nM | IC50 [2]: 6 nM

CCc1nnc(-c2cc3c(nc2C)[nH]c2c(C4CC4)cccc23)s1
IC50 [1]: 6620 nM | IC50 [2]: 1490 nM

Cc1nc2[nH]c3c(C4CC4)cccc3c2cc1-c1ccccc1
IC50 [1]: 7490 nM | IC50 [2]: 5330 nM

Cc1nc(N2CCC[C@@H]2CO)c2c(n1)[nH]c1c(C3CC3)cccc12
inhibition [3]: 21% | IC50 [1]: > 30000 nM | IC50 [2]: 8520 nM

CCc1nnc(-c2cc3c(nc2C)[nH]c2c(C4CC4)cccc23)o1
IC50 [1]: 2120 nM | IC50 [2]: 190 nM

CCC1CCCN1c1nc(C)nc2[nH]c3c(C4CC4)cccc3c12 (stereo not drawn)
IC50 [1]: 8460 nM | IC50 [2]: 758 nM

Cc1nc2[nH]c3c(C4CC4)cccc3c2cc1-c1nnc(C(NC(=O)CCc2ccccc2)C(C)C)o1 (stereo not drawn)
inhibition [6]: 3% | IC50 [5]: > 100000 nM | IC50 [1]: 24.1 nM | IC50 [2]: 4.2 nM

COC(=O)c1cc2c(nc1C)[nH]c1c(C3CC3)cccc12
IC50 [1]: 1540 nM | IC50 [2]: 210 nM

Cc1nc2[nH]c3c(C4CC4)cccc3c2cc1-c1nnc(C(C)C)o1
IC50 [1]: 592 nM | IC50 [2]: 130 nM
